Laboratory results: patent US20110212108A1, “NEUREGULIN/ERBB SIGNALING AND INTEGRIN” (THE REGENTS OF THE UNIVERSITY OF CALIFORNIA, priority 2008, published 2011)

B1: 3KE (175-241): NRG1α (175-241) with Lys181/Lys185/Lys187 mutated to Glu, SEQ ID NO:6 (3KE, long version) (protein)
chain: GTSHLVECAEEEETFCVNGGECFMVKDLSNPSRYLCKCQPGFTGARCTENVPMKVQNQEKAEELYQK
modifications: integrin-binding site within human neuregulin, residues 175-241of human neuregulin 1alpha, long version, 3KE mutant

Assays:
[1] = test system: Met-1 tumor (a highly metastatic mouse breast cancer); experiment: Met-1 tumor transplanted subcutaneously into nude mice; assay type: in vivo; conditions: 100 ng/mouse/day intraperitoneally, 5 days a week; P<0.0001
Method: FIG. 15. 3KE (175-222) mutant suppressed tumorigenesis in a xenograft experiment with highly metastatic Met-1 tumor. Met-1 tumor (a highly metastatic mouse breast cancer) (4×4×4 mm) was transplanted subcutaneously into nude mice. The 3KE (175-222) mutant or vehicle was intraperitoneally injected ([…] 5 days a week) to mice, starting day 0. Data are shown as means+/−SEM. P<0.0001 by 2-way ANOVA (n=2 for control and n=3 for 3KE).
It was tested whether intraperitoneal injection of 3KE (175-222) can affect tumor growth in vivo. The Met-1 line (a highly metastatic mouse mammary tumor) (Guy et al. 1992; Cheung et al. 1997) has the polyoma virus middle T (PyV-MT) transgene, and metastasize with 100% efficiency. Met-1 (4mm×4 mm×4 mm) was transplanted to nude mice and 3KE (175-222) (100 ng/mouse/day 5 days a week) was intraperitoneally injected.

HaCAT keratinocytes = experiment: ERK1/2 activation in HaCAT keratinocytes, Western blotting; assay type: cell-based; conditions: serum-starved; background Erk1/2 level high
Method: FIG. 18. […] HaCAT keratinocytes were serum-starved and incubated with wt NRG1 (175-222) or 3KE (175-222). The levels of Erk1/2 activation were determined by Western blotting.

[2] = test system: mammary intraepithelial neoplasia-outgrowth (MIN-O); experiment: Outgrowth of precancer (MIN-O) in FVB mice; assay type: in vivo; conditions: 200 ng/day/mouse intraperitoneally, 5 days a week for 4 weeks; P=0.0355
Method: FIG. 16. Inhibitory effect of daily intraperitoneal injection of 3KE (175-222) on the outgrowth of precancer (MIN-O) in FVB mice. MIN-O was transplanted into fat pads of FVB mice (two per mice) and 3KE (175-222) (200 ng/mouse/day) was injected 5 days a week for 4 weeks starting day 0. After 28 days, mice were sacrificed and the dimensions of tumors were measured. Since MIN-O grows as a thin layer, the two-dimensional size was calculated and the thickness was ignored. P=0.0355 by ANOVA between control and 3KE (175-222).
To study the effect of 3KE (175-222) on the premalignant cancer, transplantable mammary intraepithelial neoplasia-outgrowth (MIN-O) tissue lines, which were derived from hyperplastic mammary lesions in young Tg(MMTV-PyV-mT) females (Maglione et al. 2004), were used. The resulting lesions mimic the biological behavior, molecular biology, and histopathology of human ductal carcinoma in situ (Maglione et al. 2004). One mm^3 pieces of the 8w-BMINO tissues (Maglione et al. 2004) were transplanted to gland-cleared no. 4 mammary fat pads of 3-week-old FVB females bilaterally.

[3] = test system: Met-1 mouse breast cancer; experiment: Met-1 mouse breast cancer transplanted to fat pad of FVB syngeneic mice; assay type: in vivo; conditions: 200 ng/mouse/day intraperitoneally from day 5
Method: FIG. 23. Effect of the 3KE (175-241) mutation on in vivo tumorigenesis. Top: Growth curve. […] (P<0.0001 by two way ANOVA.) Bottom: Tumor size at day 18.
In the present invention, Met-1 mouse breast cancer fragment (2×2×2 mm) was transplanted to fat pad of FVB syngeneic mice (2 per animal, 5-6 mice per group) (day 0). At day 5, intraperitoneal injection of 200 ng/mouse/day wt NRG1, 3KE, heat-denatured 3KE or vehicle (PBS) everyday were started (FIG. 23). PBS contains 0.1 mg/ml mouse serum albumin as carrier. Tumor size was measured using caliper twice a week (FIG. 23). Tumor size was calculated using V=0.4×(a×b×b) where a is the longest diameter and b is a diameter perpendicular to a. Statistical analysis was performed using Prism software package.

Row | Molecule | Tumor growth of Met-1 in nude mice [1] | ERK1/2 activation in HaCAT cells (HaCAT keratinocytes) | Outgrowth of MIN-O in FVB mice [2] | Tumor growth curve of Met-1 in FVB mice ([3]; P<0.0001 by two way ANOVA) | Tumor size at day 18, Met-1 in FVB mice ([3]; t-test)
1 | 3KE (175-222): NRG1 (175-222) with Lys181/Lys185/Lys187 mutated to Glu; GTSHLVECAEEEETFCVNGGECFMVKDLSNPSRYLCKCQPGFTGARCT (SEQ ID NO:11) (integrin-binding site within human neuregulin, 3KE mutant, short version) | markedly suppressed tumor growth | suppressed levels of ERK1/2 activation | effectively suppressed the outgrowth of MIN-O tumors | – | –
2 | B1 | – | – | – | suppressed tumor growth | suppressed tumor growth
